# According to PMC8416643 (International Journal for Parasitology: Drugs and Drug …, 2021):
# “And” between values parts separate entries of the source, which are not always exact repeats. Identical values can stand only once. “Also recorded” adds a separate entry of the source. Like-named read-outs stand apart in the source and are kept apart here.
# What was measured:
# [1] = system: N. caninum transgenic strain expressing β-galactosidase; test: In vitro proliferation of Nc-β-gal tachyzoites in HFF monolayers (β-galactosidase readout); assay type: cell-based, Neospora caninum; details: compound added concomitantly to infection, 72 h
# Experimental: In vitro efficacy assessments of ELQ-316, ELQ-334, ELQ-422, BKI-1748, and respective drug combinations were done using Nc-β-gal ([Barna et al., 2013]; [Schorer et al., 2012]). Briefly, HFF monolayers were cultured in 96-well plates and were infected with 10^3 Nc-β-gal tachyzoites in the presence of ELQ-316, ELQ-334, ELQ-422, and BKI-1748, as well as the combinations of BKI-1748 with each of the three ELQs. All drugs and combinations were prepared as serial dilutions of 20000, 2000, 200, 20, 2, 0.2, 0.02, 0.002 and 0.0002 nM in cell culture medium, respectively. The stock solutions of ELQs as well as the medium were heated up to 37 °C before use. After three days of culture (37 °C/5% CO2) in the presence of compounds, wells were washed with 200 μl PBS, and 90 μl of PBS containing 0.05% Triton X-100 were added into each well. After addition of 10 μl 5 mM chlorophenol red-β-D-galactopyranoside dissolved in PBS, the absorption shift was measured at a wavelength of 570 nm at various time points on an Enspire multilabel reader (Perkin Elmer, Waltham). The half-maximal effective concentrations (EC50 values) were calculated after the logit-log transformation of relative growth and subsequent regression analysis by use of the corresponding software tool contained in the Excel software package (Microsoft, Seattle, WA).
# [2] = set-up: method as in Doggett et al., 2020; details: ref Doggett et al., 2020; cited from earlier work
# [3] = system: N. caninum NcSp-7 tachyzoites; details: BKI-1748 20 mg/kg
# Experimental: Ninety BALB/c female mice and 45 male mice, six weeks of age were used in this experiment. Oestrus synchronization and mating was performed as described above. After mating, (day 0) female mice were randomly assigned to seven groups: ELQ-334 (n = 14), ELQ-422 (n = 14), BKI-1748 (n = 14), ELQ-334 + BKI-1748 (n = 14), ELQ-422 + BKI-1748 (n = 14), positive control (corn oil treatment and infection, n = 14), and negative control (corn oil treatment without infection, n = 6). NcSp-7 tachyzoites were transferred from HFF cells to BALB/c dermal fibroblasts and maintained at 37 °C and 5% CO2 three days prior to infection ([Imhof et al., 2021]). On day 7, tachyzoites were harvested and prepared for infection as previously described ([Arranz-Solís et al., 2015]). In brief, tachyzoite-infected fibroblasts were recovered from culture flasks when they were >90% of intracellular tachyzoites still located in parasitophorous vacuoles, and infected cells were repeatedly passed through a 25-gauge needle at 4 °C. […] A sublethal dose of 10^5 tachyzoites in 100 μl were administered to each mouse by subcutaneous injection. The negative control group was inoculated with 100 μl dermal fibroblasts. From two days post-infection (day 9), compounds were administered in 100 μl corn oil on days nine to 13 of pregnancy, calculated after the first day of mating, as follows: ELQ-334 was administered at 5 mg/kg, ELQ-422 at 7.5 mg/kg, and BKI-1748 was administered at 20 mg/kg. The combined treatment groups were: ELQ-334 at 5 mg/kg + BKI-1748 at 20 mg/kg, and ELQ-422 at 7.5 mg/kg + BKI-1748 at 20 mg/kg. The positive and negative controls received 100 μl corn oil for five consecutive days. On day 18, pregnant females were separated into individual cages, they gave birth on days 20–22, and were allowed to rear their pups for 28 days until day 48–50. Live and stillborn pups were counted, and dead pups were removed, and the non-pregnant mice were also monitored during the following 30 days until day 50. Dams and their offspring were evaluated for clinical signs of disease, and data on the number of dams, stillborn pups and those dying postnatally were monitored. All mice were euthanized four weeks post-partum as described above. Blood was collected by cardiac puncture, centrifuged, and serum was stored at −20 °C for subsequent analysis of IgG1 and IgG2a levels by ELISA. Brain was collected and stored at −20 °C prior to further processing.
# For the quantification of the brain parasite load in all the mice, a real-time PCR method designed for quantification of N. caninum DNA was employed ([Aguado-Martínez et al., 2019]; [Müller et al., 2002]). DNA extraction and purification were done with the NucleoSpin DNA RapidLyse Kit (Macherey-Nagel, Oensingen, Switzerland) employing the standard protocols. DNA concentrations in all samples were determined using the QuantiFluor double-stranded DNA (dsDNA) system (Promega, Madison, WI, USA) according to the manufacturer's instructions and adjusted to 5 ng/μl with sterile DNase-free water. Quantitative real-time PCR was performed using the Light Cycler (Roche, Basel, Switzerland), and parasite loads calculated with a standard curve of N. caninum DNA samples of 10, 100, and 1000 tachyzoites included in each run.
# Levels of IgG1 and IgG2a in N. caninum infected mice were assessed by ELISA as described previously ([Debache et al, 2008], [2009]). Briefly, 96-well plates were coated with 200 ng NcSp-7 soluble tachyzoite protein extract diluted in coating buffer (50 mM sodium bicarbonate; 50 mM sodium carbonate both dissolved in ultrapure water; pH 9.6) per well.
# [4] = system: N. caninum NcSp-7 tachyzoites; set-up: method as in Anghel et al., 2018; details: ref Anghel et al., 2018, cited from earlier work
# T. gondii = system: T. gondii; set-up: method as in Doggett et al., 2020; Martynowicz et al., 2020; details: persistently T. gondii infected mice, ref Doggett et al., 2020, Martynowicz et al.; cited from earlier work
# BALB/c mice [5] = details: non-infected pregnant BALB/c, five times 10 mg/kg/day, pups from four dams; ref Anghel et al., 2018; cited from earlier work
# BALB/c mice [6] = test: Assessment of potential interference in pregnancy in non-infected BALB/c mice; assay type: in vivo; details: ELQs 10 mg/kg, BKI-1748 20 mg/kg; for Fertility: corn oil, gavage, days 9–13 of pregnancy, pregnant/total females
# Experimental: Thirty-six BALB/c female and 18 male mice, six weeks of age were used. […] After mating, males were removed and female mice were randomly allocated to six experimental groups (six mice per group, two females per cage). […] The placebo group received 100 μl corn oil for five consecutive days. […] During the experimental period, mice were examined daily and weighed several times during pregnancy to determine the number of pregnant animals and to detect possible abortions (which would result in rapid weight loss). On day 18 post-mating, pregnant females were separated into individual cages, where they gave birth on days 20–22 post mating. Live and stillborn pups were counted, and dead pups removed. Data on the number of female mice that became pregnant, litter size (number of delivered pups per dam), stillborn mice (dead pups from birth until day two post-partum), post-natal mortality (dead pups from day three post-partum to the end of the experiment), and clinical signs of treated mice were recorded. Dams and live pups were monitored for two weeks after birth to rule out possible adverse effects due to treatments. At the end of the experiment, mice were euthanized in a euthanasia chamber using isoflurane and CO2.
# [7] = BKI-1748 and ELQ-316 concentration in BALB/c mouse plasma (LC-MS/MS); assay type: in vivo; details: 1 h after final of 5 daily oral doses, ELQs 10 mg/kg, BKI-1748 20 mg/kg
# Experimental: Thirty-six BALB/c female and 18 male mice, six weeks of age were used. Female mice were oestrus synchronized during three days by the Whitten effect ([Whitten, 1957]), and mated for three nights by housing one male with two females. After mating, males were removed and female mice were randomly allocated to six experimental groups (six mice per group, two females per cage). […] The placebo group received 100 μl corn oil for five consecutive days. […] Live and stillborn pups were counted, and dead pups removed. Data on the number of female mice that became pregnant, litter size (number of delivered pups per dam), stillborn mice (dead pups from birth until day two post-partum), post-natal mortality (dead pups from day three post-partum to the end of the experiment), and clinical signs of treated mice were recorded. Dams and live pups were monitored for two weeks after birth to rule out possible adverse effects due to treatments. […]
# BKI-1748 and ELQ-316 concentrations in mouse plasma samples were determined as previously described ([Hulverson et al., 2019]; [Imhof et al., 2021]). Briefly, BKI-1748 and ELQ-316 were extracted from plasma using acetonitrile/0.1% formic acid with an internal standard and a standard curve was prepared for quantification. […]
Structure (SMILES),EC50 [1],Solubility [2],"Pups: Litter size ([3]; infected dams, ELQ-334 5 mg/kg, ELQ-422 7.5 mg/kg, days 9–13)","Pups: N. caninum PCR positive ([3]; infected dams, ELQ-334 5 mg/kg, ELQ-422 7.5 mg/kg, brains from surviving pups)","Vertical transmission of N. caninum to the pups ([3]; infected dams, ELQ-334 5 mg/kg, ELQ-422 7.5 mg/kg, positive control 100%)","Inhibition of vertical transmission / pup infection ([3]; infected dams, ELQ-334 5 mg/kg/day)","Non-pregnant females: Clinical signs ([3]; infected, ELQ-334 5 mg/kg, ELQ-422 7.5 mg/kg, days 9–13)","Dams: Total no. ([3]; infected, ELQ-334 5 mg/kg, ELQ-422 7.5 mg/kg, days 9–13, pregnant/total females)",Reduction of vertical transmission ([4]; 10 mg/kg/day),Cerebral parasite burden in non-pregnant mice compared to the placebo group ([4]; 10 mg/kg),"Neonatal mortality ([4]; N. caninum infected pregnant mice, 10 mg/kg/day, pups from 10 dams)",Tissue cysts in the brain (T. gondii),Neonatal mortality (BALB/c mice [5]),Fertility (BALB/c mice [6]),Fertility (BALB/c mice [6]; listed as ELQ-344),"Neonatal mortality (BALB/c mice [6]; gavage days 9–13, pups born dead or died within 2 days post-partum)","Postnatal mortality (BALB/c mice [6]; gavage days 9–13, pups that died during days 3–14 post-partum)",Pups per dam (BALB/c mice [6]; gavage days 9–13 of pregnancy),Plasma concentration ELQ-316 ([7]; non-pregnant mouse),Plasma concentration ELQ-316 ([7]; pregnant mouse)
COc1cc2[nH]c(C)c(-c3ccc(Oc4ccc(OC(F)(F)F)cc4)cc3)c(=O)c2cc1F [ELQ-316],1.55 nM,low solubility; also recorded: poor solubility,–,–,–,–,–,–,–,–,–,–,–,–,–,–,–,–,–,–
CCOC(=O)Oc1c(-c2ccc(Oc3ccc(OC(F)(F)F)cc3)cc2)c(C)nc2cc(OC)c(F)cc12 [ELQ-334],54.2 nM,–,33,2/29,10.3%,> 90%,0/8,6/14,50%,not notably reduced,seven out of 44,dramatic reduction of tissue cyst in the brain,one out of 27,2/6,Two of six,two out of 11 and 2/11,1/9,11/2,11.16 µM and 15.81 µM and 13.24 µM,12.71 µM and 18.58 µM
